Laboratory results from paper PMC7392643, “Antibiotic fidaxomicin is an RdRp inhibitor as a potential new therapeutic agent against Zika virus” (BMC Medicine, 2020).
“Also recorded” adds a separate entry of the source.

How the values were obtained:
[1] = tested on: suppression of IFN signaling induced by ZIKV NS5; test: pISRE-Luc luciferase reporter assay in 293T cells; assay type: cell-based, human; conditions: RIG-I(N) driven, 30 h treatment
Method: 293T cells were cultured in 24-well plates (~ 1 × 10^5 cells per well) and co-transfected with pISRE-Luc (100 ng) and the plasmid coding for RIG-I (100 ng) together with the ZIKV NS5 plasmid at indicated concentrations. Control pcDNA3.1 vector was added to ensure that the same total amount of DNA was used for each transfection. To normalize for transfection efficiency, 5 ng of the constitutive Renilla luciferase reporter pRL-TK (Promega, San Luis Obispo, CA, USA) was added to each transfection. Six hours after transfection, cells were treated by fidaxomicin at indicated concentration for 30 h, followed by analysis of cell lysates for luciferase activity using the Dual-Luciferase Reporter Assay System Kit (Promega) according to the manufacturer’s protocol.

[2] = tested on: STAT2 degradation induced by NS5; test: Western blotting of STAT2 in 293T cells transfected with ZIKV NS5; assay type: cell-based, human
Method: Tissue specimens obtained from mice or cells were lysed with RIPA lysis buffer (Millipore, Bedford, MA) containing a cocktail of protease and phosphatase inhibitors (Sigma-Aldrich, St. Louis, MO, USA). Protein concentrations were measured with a bicinchoninic acid (BCA) protein assay (Thermo Fisher Scientific, Rockford, IL, USA). Protein samples were separated by sodium dodecyl sulfate-polyacrylamide gel electrophoresis (SDS-PAGE) and transferred onto a polyvinylidene difluoride (PVDF) membrane. Non-specific antibody binding sites were blocked with 5% non-fat milk in Tris-buffered saline (TBS) (20 mM Tris-HCl [pH 7.6], 135 mM NaCl, and 0.1% Tween 20) for 1 h at room temperature and then incubated with the following primary antibodies: anti-STAT2 (1:1000, sc166201, Santa Cruz Biotechnology, Santa Cruz, CA, USA), anti-ZIKV E (1:1000, BF-1176-56, BioFront Technologies, Tallahassee, USA), anti-ZIKV NS5 (1:1000, BF-6A1-100UG, BioFront), and anti-ZIKV NS3 (1:1000, GTX133309, GeneTex, Alton Pkwy, Irvine, CA, USA). Anti-GAPDH (1:2000, ab181602, Abcam, Cambridge, MA, USA) or mouse anti-GAPDH (1:1000, ab9484, Abcam) was used as a loading control. […] The relative protein level was quantified by densitometry and normalized to GAPDH or mGAPDH level using Image J software (NIH, Bethesda, MD, USA).

[3] = tested on: ZIKV (ZG-01 strain); test: Antiviral efficacy in ZIKV-infected Ifnar1-/- mice, i.v. dosing; assay type: in vivo; conditions: for Median survival: vehicle 8.5 days
Method: RNA from cell supernatants or from mouse tissues (brain and testis) was prepared with RaPure Viral RNA/DNA Kit (Magen, Guangzhou, China) according to the manufacturer’s instructions. The first-strand cDNA was synthesized using random hexamer primers with the Revert Aid Reverse Transcription Kit (Thermo Fisher Scientific, Rockford, IL, USA), and real-time PCR was carried out by using LightCycler® 480 Probes Master (2× reaction mix buffer including DNA polymerase) (no. 04887301001, Roche, Basel, Switzerland). Virus concentration was determined by interpolation onto an internal standard curve made up of a 7-point dilution series of in vitro transcribed RNA and tissue weight to quantify ZIKV RNA as copies/gram tissue. Primer sets used for real-time PCR are shown in Additional file 1: Table S1. Reverse transcription and real-time PCR were performed for at least three times.
For ZIKV infection and antiviral treatment studies, mice were randomly assigned to groups (n = 12–13/group). Male and female 5-week-old Ifnar1^−/− mice were infected subcutaneously (s.c.) with ZIKV (ZG-01 strain, 2 × 10^4 PFU for each mouse) 1 h before administration of treatment agents. Compounds were prepared in sterile pharmaceutical dosage form of 1:10:89 (DMSO : Tween80 : 5% glucose solution) less than 4 h prior to administration in mice. Fidaxomicin was administered by tail vein injection daily at 20 or 10 mg/kg for 7 days. The identity of the treatment groups was blinded to the researcher administering treatments. Survival, disease signs, and the weight of each mouse were recorded on day 0 and then every other day from 1 to 15 days post-infection (dpi). Mice were humanely euthanized if they could no longer right themselves or were unresponsive to stimuli. Tissues, including the brains and testes, were collected from each animal. Part of each tissue was fixed in 4% paraformaldehyde or in PBS for at least 24 h prior to paraffin embedding and sectioning for use in immunohistochemistry analysis, immunofluorescence analysis, or analysis of viral RNA. Total RNA was extracted from tissues, and ZIKV RNA was quantified as described above.
Immunofluorescence assay was carried out on paraffin-embedded mouse brain and testis tissue slides, incubated with an anti-ZIKV E antibody (1:500, BioFront Technologies, Tallahassee, FL, USA). The secondary antibody was Rhodamine Red™-X (RRX) AffiniPure F (ab')2 Fragment Goat Anti-Mouse IgG (1:500, AB_2338781, Jackson ImmunoResearch Laboratories, Inc. West Grove, PA, USA), and 4-,6-diamidino-2-phenylindole (DAPI, 1:1000, Sangon Biotech, Shanghai, China) was used to stain the nuclei. The immunofluorescent images were taken with an inverted microscope (Carl Zeiss, Oberkochen, Germany). For histologic staining, the fixed tissues were dehydrated, embedded in paraffin, sectioned, rehydrated, and stained with hematoxylin and eosin (H/E). The H/E-stained sections were evaluated for viral-induced neuropathology. […] histological examination was performed by a board-certified veterinary pathologist. Each slide was auto scanned by Axio Scan Z1 (Carl Zeiss, Oberkochen, Germany).

[4] = tested on: ZIKV; test: Oral administration test in ZIKV-infected mice; assay type: in vivo; conditions: 225 mg/kg, vs vehicle
Method: Fig. S4. Oral administration test for the antiviral efficacy of fidaxomicin in vivo. a Schematic illustration of the animal experimental design for the oral administration test (n=10 animals per group). b Kaplan–Meier survival of ZIKV-infected mice treated with fidaxomicin at the dosage of 225mg/kg. c Body weight changes were recorded daily for ZIKV-infected mice treated with fidaxomicin at the dosage of 225mg/kg or with control delivery vehicle. d Tissue viral loads in the brains of ZIKV-infected mice were determined by RT-qPCR (P value, compared to vehicle control).

Structure (SMILES): CCc1c(Cl)c(O)c(Cl)c(O)c1C(=O)O[C@H]1[C@H](O)[C@H](OC)[C@H](OC/C2=C\C=C\C[C@H](O)/C(C)=C/[C@H](CC)[C@@H](O[C@@H]3OC(C)(C)[C@@H](OC(=O)C(C)C)[C@H](O)[C@@H]3O)/C(C)=C/C(C)=C/C[C@@H]([C@@H](C)O)OC2=O)O[C@@H]1C [Fidaxomicin]
- effect on NS5 suppression of ISRE reporter luciferase activity [1]: did not liberate the suppression of IFN signaling
- effect on STAT2 degradation in presence of NS5 [2]: did not prevent the degradation of STAT2
- Median survival ([3]; 10 mg/kg i.v. daily for 7 days): 14 days
- Median survival ([3]; 20 mg/kg i.v. daily for 7 days): over 15 days
- body weight loss ([3]; 20 mg/kg/day, between 8 and 15 dpi, vs vehicle): obvious protection from weight loss
- ZIKV load in the brains and testes (immunostaining of ZIKV E) ([3]; 10 and 20 mg/kg vs vehicle): reduced
- viral RNA levels in the brain and testis ([3]; 15 dpi, 10 and 20 mg/kg groups, RT-qPCR): significantly decreased
- neuronal necrosis in hippocampal pyramidal cells ([3]; H/E staining): remarkably reduced
- pathologic damages in the cerebra ([3]; both treatment groups vs vehicle, H/E staining): remarkably alleviated
- number of neurological signs (paralysis, hunching) ([3]; both treatment groups, dose-dependent): progressive decrease
- perivascular cuffing of vessels in cerebra ([3]; both treatment groups, p = 0.0090 and p < 0.0001): significant decrease
- mice protected from mortality ([3]; high-dose group (20 mg/kg i.v. daily for 7 days)): nine out of 13
- effective therapeutic doses against ZIKV ([3]; mice, i.v.): 10 to 20 mg/kg
- ZIKV E protein in brain and testis tissues (western blotting) ([3]; vs vehicle control): significant suppressive effect
- outcome of ZIKV-infected mice after oral administration [4]: did not improve the outcome; also recorded: only weakly antagonizes
